According to patent US9404081B2, “Pyruvate kinase activators for use in therapy” (AGIOS PHARMACEUTICALS, INC., priority 2011, dated 2016):

Columns and labels:
Assay type in all cases: biochemical
PKR R510Q = PKR R510Q (Homo sapiens, UniProt P30613, R510Q); experiment: PKR R510Q Single Point Percent Activation Assay; conditions: read-out: Act. % 510Q
Experimental: PKR R510Q Single Point Percent Activation Assay
(§1) A compound described herein was diluted with DMSO and tested at 1 μM concentration. The enzyme was diluted in 1× Buffer: (100 mM KCl, 50 mM Tris 7.5, 5 mM MgCl2, 1 mM DTT, 0.03% BSA). 2 μL of compound solution was first added into wells, and then 180 μL of enzyme solution was added. Assays were assembled except for ADP, and plates were stored for 60 minutes at RT. 20 μL ADP was added to start the assay and assay output was evaluated using OD340 at SpectraMax. The assay was run at room temperature.
Final concentration: PKR R510Q (40 ng/well), Tris pH 7.5 (50 mM), KCl (100 mM), MgCl2 (5 mM), ADP (0.2 mM), PEP (0.11 mM), NADH (180 μM), LDH (0.5 units, Sigma 59023), DTT (1 mM) and BSA (0.03%).

PKR T384W = PKR T384W (Homo sapiens, UniProt P30613, T384W); experiment: PKR T384W Single Point Percent Activation Assay; conditions: read-out: Act. % 384W
Chain of PKR T384W (P30613 whole entry T384W): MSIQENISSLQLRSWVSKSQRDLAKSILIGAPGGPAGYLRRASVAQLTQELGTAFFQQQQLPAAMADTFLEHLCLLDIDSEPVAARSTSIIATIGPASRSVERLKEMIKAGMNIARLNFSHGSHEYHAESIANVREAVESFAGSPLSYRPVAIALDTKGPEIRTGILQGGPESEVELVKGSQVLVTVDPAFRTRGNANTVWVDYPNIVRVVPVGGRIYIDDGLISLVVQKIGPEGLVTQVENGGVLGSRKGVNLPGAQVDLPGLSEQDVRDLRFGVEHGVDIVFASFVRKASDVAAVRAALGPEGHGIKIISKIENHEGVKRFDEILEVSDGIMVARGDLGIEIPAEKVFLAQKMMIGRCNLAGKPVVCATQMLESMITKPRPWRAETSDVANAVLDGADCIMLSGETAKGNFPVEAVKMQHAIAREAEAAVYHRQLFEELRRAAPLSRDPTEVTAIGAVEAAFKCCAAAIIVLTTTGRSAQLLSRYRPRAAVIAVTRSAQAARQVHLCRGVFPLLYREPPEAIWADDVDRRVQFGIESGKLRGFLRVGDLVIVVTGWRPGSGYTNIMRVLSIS
Experimental: PKR T384W Single Point Percent Activation Assay
as §1, with “180 μL enzyme solution” for “180 μL of enzyme solution”
Final concentration: PKR T384W soluble (300 ng/well), Tris pH 7.5 (50 mM), KCl (100 mM), MgCl2 (5 mM), ADP (0.08 mM), PEP (0.23 mM), NADH (180 μM), LDH (0.5 units, Sigma 59023), DTT (1 mM) and BSA (0.03%).

PKR R532W = PKR R532W (Homo sapiens, UniProt P30613, R532W); experiment: PKR R532W Single Point Percent Activation Assay; conditions: read-out: Act, % 532W
Chain of PKR R532W (P30613 whole entry R532W): as the sequence (P30613 whole entry T384W) above, with W384T, R532W counted along it
Experimental: PKR R532W Single Point Percent Activation Assay
as §1
Final concentration: PKR R532W (100 ng/well), Tris pH 7.5 (50 mM), KCl (100 mM), MgCl2 (5 mM), ADP (0.36 mM), PEP (0.1 mM), NADH (180 μM), LDH (0.5 units, Sigma 59023), DTT (1 mM) and BSA (0.03%).

PKR wt = PKR wt (Homo sapiens, UniProt P30613); experiment: PKR WT Single Point Percent Activation Assay
Chain of PKR wt (P30613 whole entry): as the sequence (P30613 whole entry T384W) above, with W384T counted along it
Experimental: PKR WT Single Point Percent Activation Assay
as §1
Final concentration: PKR wt (100 ng/well), Tris pH 7.5 (50 mM), KCl (100 mM), MgCl2 (5 mM), ADP (0.48 mM), PEP (0.15 mM), NADH (180 μM), LDH (0.5 units, Sigma 59023), DTT (1 mM) and BSA (0.03%).

Chain of PKR R510Q (P30613 whole entry R510Q): as the sequence (P30613 whole entry T384W) above, with W384T, R510Q counted along it

Structure (SMILES)	activation at 1 µM (PKR R510Q)	activation at 1 µM (PKR T384W)	activation at 1 µM (PKR R532W)	activation at 1 µM (PKR wt)
CC(C)OC(=O)N1CCN(C(=O)c2ccc(NS(=O)(=O)c3cccc4cccnc34)cc2)[C@@H](C)C1	101 to 500%	1 to 100%	101 to 500%	1 to 100%
C[C@H]1CN(C(=O)OCC2CC2)CCN1C(=O)c1ccc(NS(=O)(=O)c2cccc3cccnc23)cc1	1 to 100%	101 to 500%	101 to 500%	101 to 500%
C[C@@H]1CN(C(=O)OCC2CC2)CCN1C(=O)c1ccc(NS(=O)(=O)c2cccc3cccnc23)cc1	1 to 100%	1 to 100%	101 to 500%	1 to 100%
C[C@@H]1CN(CC2CCCC2)CCN1C(=O)c1ccc(NS(=O)(=O)c2cccc3cccnc23)cc1	1 to 100%	101 to 500%	1 to 100%	1 to 100%
C[C@@H]1CN(CC2CCOC2)CCN1C(=O)c1ccc(NS(=O)(=O)c2cccc3cccnc23)cc1 (stereo partly drawn)	101 to 500%	101 to 500%	101 to 500%	101 to 500%
C[C@@H]1CN(C(=O)OCCC2CCCCC2)CCN1C(=O)c1ccc(NS(=O)(=O)c2cccc3cccnc23)cc1	1 to 100%	1 to 100%	1 to 100%	1 to 100%
C[C@@H]1CN(C(=O)OCCC2CCCC2)CCN1C(=O)c1ccc(NS(=O)(=O)c2cccc3cccnc23)cc1	1 to 100%	1 to 100%	1 to 100%	1 to 100%
C[C@@H]1CN(C(=O)OC2CCCCC2)CCN1C(=O)c1ccc(NS(=O)(=O)c2cccc3cccnc23)cc1	1 to 100%	1 to 100%	1 to 100%	1 to 100%
C[C@@H]1CN(CC2CCC2)CCN1C(=O)c1ccc(NS(=O)(=O)c2cccc3cccnc23)cc1	101 to 500%	1 to 100%	101 to 500%	101 to 500%
C[C@@H]1CN(C[C@@H]2CCCO2)CCN1C(=O)c1ccc(NS(=O)(=O)c2cccc3cccnc23)cc1	101 to 500%	101 to 500%	101 to 500%	101 to 500%
C[C@@H]1CN(C[C@H]2CCCO2)CCN1C(=O)c1ccc(NS(=O)(=O)c2cccc3cccnc23)cc1	1 to 100%	101 to 500%	101 to 500%	101 to 500%
O=C(c1ccc(NS(=O)(=O)c2cccc3cccnc23)cc1)N1C2CCC1CN(Cc1ccccc1)C2	101 to 500%	101 to 500%	101 to 500%	101 to 500%
O=C1CN(C(=O)c2ccc(NS(=O)(=O)c3cccc4cccnc34)cc2)CCN1CC1CC1	1 to 100%	101 to 500%	1 to 100%	101 to 500%
O=C(c1ccc(NS(=O)(=O)c2cccc3cccnc23)cc1)N1CC2CCC(C1)N2Cc1cc(F)cc(F)c1	101 to 500%	101 to 500%	1 to 100%	101 to 500%
O=C(c1ccc(NS(=O)(=O)c2cccc3cccnc23)cc1)N1CC2CCC(C1)N2Cc1ccc(F)cc1	101 to 500%	1 to 100%	1 to 100%	101 to 500%
O=C(c1ccc(NS(=O)(=O)c2cccc3cccnc23)cc1)N1CC2CCC(C1)N2Cc1ccccc1	101 to 500%	101 to 500%	101 to 500%	101 to 500%
O=C(c1ccc(NS(=O)(=O)c2cccc3cccnc23)cc1)N1CC2CCC(C1)N2CC1CC1	101 to 500%	101 to 500%	101 to 500%	1 to 100%
O=C(c1ccc(NS(=O)(=O)c2cccc3cccnc23)cc1)N1CCn2c(nnc2-c2cc(F)cc(F)c2)C1	101 to 500%	101 to 500%	101 to 500%	101 to 500%
O=C(c1ccc(NS(=O)(=O)c2cccc3cccnc23)cc1)N1C2CCC1CN(Cc1ccc(F)cc1)C2	101 to 500%	101 to 500%	1 to 100%	1 to 100%
O=C(c1ccc(NS(=O)(=O)c2cccc3cccnc23)cc1)N1C2CCC1CN(Cc1cc(F)cc(F)c1)C2	101 to 500%	101 to 500%	101 to 500%	101 to 500%
O=C(c1ccc(NS(=O)(=O)c2cccc3cccnc23)cc1)N1C2CCC1CN(CC1CC1)C2	1 to 100%	101 to 500%	101 to 500%	101 to 500%

The remaining lines, values ahead:

activation at 1 µM (PKR R510Q)	activation at 1 µM (PKR T384W)	activation at 1 µM (PKR R532W)	activation at 1 µM (PKR wt)	Structure (SMILES)
101 to 500%	101 to 500%	101 to 500%	101 to 500%	C[C@@H]1CN(C(=O)c2ccc(NS(=O)(=O)c3cccc4cccnc34)cc2)C[C@H](C)N1C(=O)c1ccccn1
101 to 500%	101 to 500%	1 to 100%	101 to 500%	CC(C)COC(=O)N1[C@H](C)CN(C(=O)c2ccc(NS(=O)(=O)c3cccc4cccnc34)cc2)C[C@@H]1C
101 to 500%	101 to 500%	101 to 500%	101 to 500%	COc1ccccc1N1C[C@@H](C)N(C(=O)c2ccc(NS(=O)(=O)c3cccc4cccnc34)cc2)[C@@H](C)C1
101 to 500%	101 to 500%	1 to 100%	101 to 500%	C[C@@H]1CN(CC2CC2)CCN1C(=O)c1ccc(NS(=O)(=O)c2cccc3cccnc23)cc1
1 to 100%	1 to 100%	1 to 100%	101 to 500%	C[C@@H]1CN(C(=O)c2ccccn2)C[C@H](C)N1C(=O)c1ccc(NS(=O)(=O)c2cccc3cccnc23)cc1
101 to 500%	101 to 500%	101 to 500%	101 to 500%	CCOC(=O)N1[C@H](C)CN(C(=O)c2ccc(NS(=O)(=O)c3cccc4cccnc34)cc2)C[C@@H]1C
101 to 500%	101 to 500%	1 to 100%	1 to 100%	C[C@@H]1CN(Cc2ccc(F)c(F)c2F)CCN1C(=O)c1ccc(NS(=O)(=O)c2cccc3cccnc23)cc1
1 to 100%	1 to 100%	1 to 100%	1 to 100%	C[C@@H]1CN(Cc2cc(F)cc(F)c2)CCN1C(=O)c1ccc(NS(=O)(=O)c2cccc3cccnc23)cc1
1 to 100%	1 to 100%	1 to 100%	1 to 100%	C[C@@H]1CN(Cc2cc(F)c(F)cc2F)CCN1C(=O)c1ccc(NS(=O)(=O)c2cccc3cccnc23)cc1
1 to 100%	1 to 100%	101 to 500%	1 to 100%	CC1CN(Cc2cc(F)c(F)c(F)c2)CC(C)N1C(=O)c1ccc(NS(=O)(=O)c2cccc3cccnc23)cc1 (stereo not drawn)
101 to 500%	1 to 100%	101 to 500%	101 to 500%	CC1CN(Cc2c(F)cc(F)cc2F)CC(C)N1C(=O)c1ccc(NS(=O)(=O)c2cccc3cccnc23)cc1 (stereo not drawn)
101 to 500%	1 to 100%	1 to 100%	101 to 500%	CC1CN(Cc2cc(F)c(F)cc2F)CC(C)N1C(=O)c1ccc(NS(=O)(=O)c2cccc3cccnc23)cc1 (stereo not drawn)
101 to 500%	1 to 100%	1 to 100%	1 to 100%	CC1CN(CC2CCOC2)CC(C)N1C(=O)c1ccc(NS(=O)(=O)c2cccc3cccnc23)cc1 (stereo not drawn)
101 to 500%	101 to 500%	101 to 500%	101 to 500%	C[C@H]1CN(CC2CCC2)CCN1C(=O)c1ccc(NS(=O)(=O)c2cccc3cccnc23)cc1
101 to 500%	101 to 500%	101 to 500%	101 to 500%	O=C1CN(C(=O)c2ccc(NS(=O)(=O)c3cccc4cccnc34)cc2)CCN1Cc1cc(F)cc(F)c1
